Experimental data as given in article PMC5285354, “Cationic Net Charge and Counter Ion Type as Antimicrobial Activity Determinant Factors of Short Lipopeptides” (Frontiers in Microbiology, 2017).
In brackets after ≈: the same amount, converted by molar mass. Where a SMILES comes first, the peptide text is derived from it. The star is where a group is joined. Palmitoyl = CCCCCCCCCCCCCCCC(=O)*

What was measured:
Type in all cases: cell-based
human red blood cells = settings: 1 h
In short: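 Washed donor erythrocytes (4% v/v in PBS, EDTA-anticoagulated) incubated with graded lipopeptide concentrations for 1 h at 37 °C; hemoglobin release read at 550 nm in supernatants. Scaled between 0.1% Triton X-100 (100%) and PBS (0%); MHC is the lowest concentration giving 10% hemolysis.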

[1] = test system: Candida albicans (ATCC 10231)
[2] = test system: Proteus vulgaris (PCM 2668); settings: 24 h
[3] = test system: Pseudomonas aeruginosa (ATCC 9027); settings: ATCC 9027, 24 h
[4] = test system: Proteus vulgaris (PCM 2668); settings: 18 h
In short: (§1)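 Broth microdilution per CLSI: Mueller-Hinton broth, 10^5 cfu/mL inoculum, 18 h at 37°C for bacteria; Sabouraud dextrose broth, 10^3 cfu/mL, 48 h at 25°C for fungi. MIC (μg/mL) is the lowest lipopeptide concentration inhibiting visible growth; MBC/MFC also determined. Triplicate on three days.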

[5] = test system: Escherichia coli (ATCC 25922); settings: for MBC Escherichia coli, lipopeptides without TFA counter ion / MIC Escherichia coli / MIC Escherichia coli, lipopeptides without TFA counter ion: ATCC 25922, 18 h; for MBC Escherichia coli: ATCC 25922, 24 h
In short: as §1

[6] = test system: Enterococcus faecalis (ATCC 29212); settings: for MBC Enterococcus fecalis, lipopeptides without TFA counter ion / MIC Enterococcus fecalis / MIC Enterococcus fecalis, lipopeptides without TFA counter ion: ATCC 29212, 18 h; for MBC Enterococcus fecalis: ATCC 29212, 24 h
In short: as §1

[7] = test system: Aspergillus brasiliensis (ATCC 16404); settings: ATCC 16404, 48 h
In short: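 Lowest lipopeptide concentration (μg/mL) with no observable growth gave the MIC, alongside MBC/MFC, by CLSI microbroth dilution. Fungi: Sabouraud dextrose broth, 10^3 cfu/mL start, 25°C for 48 h; bacteria: MH broth, 10^5 cfu/mL, 37°C for 18 h. Run in triplicate, three separate days.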

[8] = test system: Staphylococcus epidermidis (PCM 2118); settings: for MIC Staphylococcus epidermidis: PCM 2118, 18 h; for MBC Staphylococcus epidermidis: PCM 2118, 24 h
In short: as §1

[9] = test system: Candida tropicalis (PCM 2681); settings: PCM 2681, 48 h
In short: as §1

[10] = test system: Staphylococcus aureus (ATCC 25923); settings: for MBC Staphylococcus aureus, lipopeptides without TFA counter ion / MIC Staphylococcus aureus / MIC Staphylococcus aureus, lipopeptides without TFA counter ion: ATCC 25923, 18 h; for MBC Staphylococcus aureus: ATCC 25923, 24 h
In short: as §1

[11] = test system: Candida albicans (ATCC 10231); settings: ATCC 10231, 48 h
In short: as §1

[12] = test system: Pseudomonas aeruginosa (ATCC 9027); settings: ATCC 9027, 18 h
In short: as §1

[13] = test system: Bacillus subtilis (ATCC 6633); settings: for MIC Bacillus subtillis: ATCC 6633, 18 h; for MBC Bacillus subtillis: ATCC 6633, 24 h
In short: as §1

[14] = test system: Klebsiella pneumoniae (ATCC 700603); settings: for MBC Klebsiella pneumoniae, lipopeptides without TFA counter ion / MIC Klebsiella pneumoniae / MIC Klebsiella pneumoniae, lipopeptides without TFA counter ion: ATCC 700603, 18 h; for MBC Klebsiella pneumoniae: ATCC 700603, 24 h
In short: as §1

Row | MIC Proteus vulgaris [4] [µg/mL] | MIC Escherichia coli [5] [µg/mL] | MIC Enterococcus fecalis [6] [µg/mL] | MIC Aspergillus brasiliensis [7] [µg/mL] | MIC Staphylococcus epidermidis [8] [µg/mL] | MIC Candida tropicalis [9] [µg/mL] | Compound | Hemolysis HC10 (MHC), concentration of lipopeptide inducing 10% of hemolysis (human red blood cells) [µg/mL] | MFC Candida albicans, lipopeptides without TFA counter ion [1] [µg/mL] | MBC Proteus vulgaris [2] [µg/mL] | MBC Pseudomonas aeruginosa [3] [µg/mL] | MBC Escherichia coli, lipopeptides without TFA counter ion [5] [µg/mL] | MIC Escherichia coli, lipopeptides without TFA counter ion [5] [µg/mL] | MBC Escherichia coli [5] [µg/mL] | MBC Enterococcus fecalis, lipopeptides without TFA counter ion [6] [µg/mL] | MIC Enterococcus fecalis, lipopeptides without TFA counter ion [6] [µg/mL] | MBC Enterococcus fecalis [6] [µg/mL] | MFC Aspergillus brasiliensis [7] [µg/mL] | MBC Staphylococcus epidermidis [8] [µg/mL] | MFC Candida tropicalis [9] [µg/mL] | MBC Staphylococcus aureus, lipopeptides without TFA counter ion [10] [µg/mL] | also measured
1 | >512 | 8 (≈ 14.1 µM) | 8 (≈ 14.1 µM) | 128 (≈ 225 µM) | 4 (≈ 7.03 µM) | 256 (≈ 450 µM) | CCCCCCCCCCCCCCCC(=O)N[C@@H](CCCCN)C(=O)NCC(=O)N[C@@H](CCCCN)C(N)=O [C16-KGK-NH2] (Palmitoyl-Lys-Gly-Lys-NH2) | 64 | 128 (≈ 225 µM) | >512 | 32 (≈ 56.3 µM) | 4 (≈ 7.03 µM) | 4 (≈ 7.03 µM) | 8 (≈ 14.1 µM) | 4 (≈ 7.03 µM) | 4 (≈ 7.03 µM) | 16 (≈ 28.1 µM) | 128 (≈ 225 µM) | 4 (≈ 7.03 µM) | 256 (≈ 450 µM) | 4 (≈ 7.03 µM) | MIC Staphylococcus aureus [10]: 8 µg/mL (≈ 14.1 µM); MIC Staphylococcus aureus, lipopeptides without TFA counter ion [10]: 4 µg/mL (≈ 7.03 µM); MBC Staphylococcus aureus [10]: 8 µg/mL (≈ 14.1 µM); MFC Candida albicans [11]: 128 µg/mL (≈ 225 µM); MIC Candida albicans [11]: 128 µg/mL (≈ 225 µM); MIC Candida albicans, lipopeptides without TFA counter ion [11]: 128 µg/mL (≈ 225 µM); MIC Pseudomonas aeruginosa [12]: 16 µg/mL (≈ 28.1 µM); MIC Bacillus subtillis [13]: 4 µg/mL (≈ 7.03 µM); MBC Bacillus subtillis [13]: 4 µg/mL (≈ 7.03 µM); MBC Klebsiella pneumoniae, lipopeptides without TFA counter ion [14]: 64 µg/mL (≈ 113 µM); MIC Klebsiella pneumoniae [14]: 16 µg/mL (≈ 28.1 µM); MIC Klebsiella pneumoniae, lipopeptides without TFA counter ion [14]: 32 µg/mL (≈ 56.3 µM); MBC Klebsiella pneumoniae [14]: 16 µg/mL (≈ 28.1 µM)
2 | >512 | 16 (≈ 25.6 µM) | 16 (≈ 25.6 µM) | 128 (≈ 205 µM) | 4 (≈ 6.39 µM) | 256 (≈ 409 µM) | CCCCCCCCCCCCCCCC(=O)N[C@@H](CCCCN)C(=O)NCC(=O)N[C@@H](CCCCN)C(=O)NCC(N)=O [C16-KGKG-NH2] (Palmitoyl-KGKG-NH2) | 64 | 128 (≈ 205 µM) | >512 | 8 (≈ 12.8 µM) | 8 (≈ 12.8 µM) | 8 (≈ 12.8 µM) | 16 (≈ 25.6 µM) | 16 (≈ 25.6 µM) | 16 (≈ 25.6 µM) | 16 (≈ 25.6 µM) | 128 (≈ 205 µM) | 4 (≈ 6.39 µM) | 256 (≈ 409 µM) | 16 (≈ 25.6 µM) | MIC Staphylococcus aureus [10]: 16 µg/mL (≈ 25.6 µM); MIC Staphylococcus aureus, lipopeptides without TFA counter ion [10]: 8 µg/mL (≈ 12.8 µM); MBC Staphylococcus aureus [10]: 32 µg/mL (≈ 51.1 µM); MFC Candida albicans [11]: 128 µg/mL (≈ 205 µM); MIC Candida albicans [11]: 128 µg/mL (≈ 205 µM); MIC Candida albicans, lipopeptides without TFA counter ion [11]: 128 µg/mL (≈ 205 µM); MIC Pseudomonas aeruginosa [12]: 8 µg/mL (≈ 12.8 µM); MIC Bacillus subtillis [13]: 4 µg/mL (≈ 6.39 µM); MBC Bacillus subtillis [13]: 4 µg/mL (≈ 6.39 µM); MBC Klebsiella pneumoniae, lipopeptides without TFA counter ion [14]: 32 µg/mL (≈ 51.1 µM); MIC Klebsiella pneumoniae [14]: 16 µg/mL (≈ 25.6 µM); MIC Klebsiella pneumoniae, lipopeptides without TFA counter ion [14]: 16 µg/mL (≈ 25.6 µM); MBC Klebsiella pneumoniae [14]: 16 µg/mL (≈ 25.6 µM)
